Results reported in patent publication US8933039B2 (NPS Pharmaceuticals, Inc., priority 1995, dated 2015).
Non-standard residues stand in square brackets, D forms with d. Residues, ends and D or L forms follow the SMILES beside them. Pen = CC(C)(S)[C@H](N)C(=O)O; Phg = N[C@H](C(=O)O)c1ccccc1; βAla = NCCC(=O)O

Legend:
[1] = test system: CD1 mice; test: Intestinotrophic activity assessment: small bowel weight in mice; type: in vivo; conditions: for % Activity (small bowel inducing activity relative to native rat GLP-2(1-33) = 100%): mice, as Example 4; for % Increase in small bowel weight: CD1 mice, 2.5 μg peptide s.c. b.i.d. in PBS, sacrificed 10 or 14 days, relative to vehicle only
Procedure: Recipients were CD1 mice obtained from Charles River Laboratory (Ontario, Canada). The CD1 mice were aged-matched females at time of injection (n=3-4 per group), 6 weeks of age, unless otherwise specified. The animals were allowed a minimum of 24 hours to acclimatize to the laboratory facility before the initiation of each experiment. Animals were identified by ear punch. The mice were not restricted by diet or activity during the experiments. The light/dark cycle was 12 hours, between 6 pm to 6 am. Controls were age- and sex-matched (n=3-4) animals. Mice were injected subcutaneously, twice a day (b.i.d.), with 2.5 μg peptide in a total volume of 0.5 cc of PBS and were monitored daily in the laboratory facility. Animals were sacrificed 10 or 14 days after injection, and were fasted at least 20 hours before sacrifice.
The mice were anaesthetised with CO2 and exsanguinated by cardiac puncture. Blood was collected in 75 μl of TED (Trasysol; EDTA (5000 KIU/ml: 1.2 mg/ml; Diprotin-A), and the blood was centrifuged at 14 k×g for 5 minutes and the plasma was stored at −70 prior to analysis. The small bowel was removed from the peritoneal cavity, from pylorus to cecum, cleaned weighed and measured. For comparative purpose, sections from each animal were obtained from the identical anatomical position. Fragments each measuring 1.5-2.0 cm in length were obtained 8±2 cm, 18±2 cm, 32±2 cm from pylorus for histomorphometry representing proximal jejunum, distal jejunum and distal ileum. Each small bowel fragment was opened longitudinally on its antimesenteric border in a tissue block and then placed on 10% formalin (vol./vol.) overnight, then transferred to 70% […].
Percentage change in small bowel weight was calculated by dividing the mean change in bowel weight of analog treated mice, relative to mice treated with vehicle only, by the mean bowel weight of mice treated with vehicle only, and multiplying this figure by 100.
Experiments assessing the small bowel inducing activity of various analogs was repeated as described above for Example 4. In these experiments, the small bowel inducing activity of each analog in mice was calculated relative to that of native rat GLP-2(1-33) (expressed as 100% of activity). Resistance of analogs to DPP-IV cleavage was performed as described above in Example 3.

[2] = molecular target: DPP-IV (Homo sapiens, UniProt P27487); test: Assay for resistance to dipeptidyl peptidase IV (RP-HPLC of cleavage product); conditions: human, isolated human placental DPP-IV (dipeptidyl peptidase IV), pH 7.4, % Cleaved by DPP-IV, as Example 3: human placental DPP-IV, 37° C., PBS pH 7.4
Chain of DPP-IV (P27487 whole entry): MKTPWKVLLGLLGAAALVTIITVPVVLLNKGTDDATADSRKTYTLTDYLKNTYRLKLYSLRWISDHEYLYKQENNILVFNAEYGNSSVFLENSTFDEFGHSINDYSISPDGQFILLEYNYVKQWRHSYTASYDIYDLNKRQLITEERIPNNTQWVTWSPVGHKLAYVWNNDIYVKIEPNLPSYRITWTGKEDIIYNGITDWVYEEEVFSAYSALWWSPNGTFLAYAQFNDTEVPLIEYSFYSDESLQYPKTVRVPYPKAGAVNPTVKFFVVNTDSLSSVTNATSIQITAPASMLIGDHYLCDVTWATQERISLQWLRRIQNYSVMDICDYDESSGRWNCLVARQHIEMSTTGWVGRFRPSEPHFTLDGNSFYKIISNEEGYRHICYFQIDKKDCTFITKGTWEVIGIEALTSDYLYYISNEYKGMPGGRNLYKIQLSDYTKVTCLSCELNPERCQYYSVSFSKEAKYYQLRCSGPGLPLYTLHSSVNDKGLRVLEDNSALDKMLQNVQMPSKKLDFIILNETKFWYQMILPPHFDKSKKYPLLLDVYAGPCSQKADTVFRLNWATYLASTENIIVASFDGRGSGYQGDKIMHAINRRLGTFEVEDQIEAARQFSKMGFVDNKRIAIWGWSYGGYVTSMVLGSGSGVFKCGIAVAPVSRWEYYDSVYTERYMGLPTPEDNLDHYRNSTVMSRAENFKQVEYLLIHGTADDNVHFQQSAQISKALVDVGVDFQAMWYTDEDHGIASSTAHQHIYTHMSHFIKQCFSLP

Molecule | % Activity (small bowel inducing activity relative to native rat GLP-2(1-33) = 100%) [1] [%] | metabolised at 24 h, 0.19 mg/ml [2] [%] | % Increase in small bowel weight [1] [%]
H-HYDGSFSDEMNTILDNLAARDFINWLIQTKITD-OH [[Tyr2]hGLP-2(1-33)] | 57 | 0 | 
H-HADGSFSDEMNTILDNLAARDFINYLIQTKITD-OH [[Tyr25]hGLP-2(1-33)] | 64 | 48 | 
Ac-HADGSFSDEMNTILDNLATRDFINWLIQTKITD-OH [Ac-ratGLP-2(1-33)] | 44 | 0 | 
H-HAPGSFSDEMNTILDNLAARDFINWLIQTKITD-OH [[Pro3]hGLP-2(1-33)] | 140 | 0 | 
H-HAEGSFSDEMNTILDNLATRDFINWLIQTKITD-OH [[Glu3]ratGLP-2(1-33)] | 65 | 50 | 33
CC[C@H](C)[C@H](NC(=O)[C@H](Cc1ccccc1)NC(=O)[C@H](CC(=O)O)NC(=O)[C@H](CCCNC(=N)N)NC(=O)[C@H](C)NC(=O)[C@H](C)NC(=O)[C@H](CC(C)C)NC(=O)[C@H](CC(N)=O)NC(=O)[C@H](CC(=O)O)NC(=O)[C@H](CC(C)C)NC(=O)[C@@H](NC(=O)[C@@H](NC(=O)[C@H](CC(N)=O)NC(=O)[C@H](CCSC)NC(=O)[C@H](CCC(=O)O)NC(=O)[C@H](CC(=O)O)NC(=O)[C@H](CO)NC(=O)[C@H](Cc1ccccc1)NC(=O)[C@H](CO)NC(=O)CNC(=O)[C@H](CC(=O)O)NC(=O)[C@@H](NC(=O)[C@@H](N)Cc1c[nH]cn1)c1ccccc1)[C@@H](C)O)[C@@H](C)CC)C(=O)N[C@@H](CC(N)=O)C(=O)N[C@@H](Cc1c[nH]c2ccccc12)C(=O)N[C@@H](CC(C)C)C(=O)N[C@H](C(=O)N[C@@H](CCC(N)=O)C(=O)N[C@H](C(=O)N[C@@H](CCCCN)C(=O)N[C@H](C(=O)N[C@H](C(=O)N[C@@H](CC(=O)O)C(=O)O)[C@@H](C)O)[C@@H](C)CC)[C@@H](C)O)[C@@H](C)CC [[PhGly2]hGLP-2(1-33)] (H-H[Phg]DGSFSDEMNTILDNLAARDFINWLIQTKITD-OH) | 37 | 0 | 
H-HPDGSFSDEMNTILDNLAARDFINWLIQTKITD-OH [[Pro2]hGLP-2(1-33)] | 50 | 16 | 
H-HADGSFSDEMNTILDNLAARDFINFLIQTKITD-OH [[Phe25]hGLP-2(1-33)] | 114 | 54 | 
H-DADGSFSDEMNTILDNLAARDFINWLIQTKITD-OH [[Asp1]hGLP-2(1-33)] | 60 | 0 | 
H-HGAGSFSDEMNTILDNLAARDFINWLIQTKITD-OH [[Gly2,Ala3]hGLP-2(1-33)] | 44 | 0 | 18
H-HGDGAFSDEMNTILDNLAARDFINWLIQTKITD-OH [[Gly2,Ala5]hGLP-2(1-33)] | 136 | 0 | 38
H-PADGSFSDEMNTILDNLAARDFINWLIQTKITD-OH [[Pro1]hGLP-2(1-33)] | 12 | 0 | 
H-YADGSFSDEMNTILDNLATRDFINWLIQTKITD-OH [[Tyr1]ratGLP-2(1-33)] | 81 | 100 | 37
H-HADGAFADEMNTILDNLAARDFINWLIQTKITD-OH [[Ala5, Ala7]hGLP-2(1-33)] | 108 | 77 | 
CC[C@H](C)[C@H](NC(=O)[C@H](Cc1ccccc1)NC(=O)[C@H](CC(=O)O)NC(=O)[C@H](CCCNC(=N)N)NC(=O)[C@H](C)NC(=O)[C@H](C)NC(=O)[C@H](CC(C)C)NC(=O)[C@H](CC(N)=O)NC(=O)[C@H](CC(=O)O)NC(=O)[C@H](CC(C)C)NC(=O)[C@@H](NC(=O)[C@@H](NC(=O)[C@H](CC(N)=O)NC(=O)[C@H](CCSC)NC(=O)[C@H](CCC(=O)O)NC(=O)[C@H](CC(=O)O)NC(=O)[C@H](CO)NC(=O)[C@H](Cc1ccccc1)NC(=O)[C@H](CO)NC(=O)CNC(=O)[C@H](CC(=O)O)NC(=O)[C@@H](NC(=O)[C@@H](N)Cc1c[nH]cn1)C(C)(C)S)[C@@H](C)O)[C@@H](C)CC)C(=O)N[C@@H](CC(N)=O)C(=O)N[C@@H](Cc1c[nH]c2ccccc12)C(=O)N[C@@H](CC(C)C)C(=O)N[C@H](C(=O)N[C@@H](CCC(N)=O)C(=O)N[C@H](C(=O)N[C@@H](CCCCN)C(=O)N[C@H](C(=O)N[C@H](C(=O)N[C@@H](CC(=O)O)C(=O)O)[C@@H](C)O)[C@@H](C)CC)[C@@H](C)O)[C@@H](C)CC [[Pen2]hGLP-2(1-33)] (H-H[Pen]DGSFSDEMNTILDNLAARDFINWLIQTKITD-OH) | 58 | 20 | 
H-HMDGSFSDEMNTILDNLAARDFINWLIQTKITD-OH [[Met2]hGLP-2(1-33)] | 170 | 0 | 
CC[C@H](C)[C@H](NC(=O)[C@H](Cc1ccccc1)NC(=O)[C@H](CC(=O)O)NC(=O)[C@H](CCCNC(=N)N)NC(=O)[C@H](C)NC(=O)[C@H](C)NC(=O)[C@H](CC(C)C)NC(=O)[C@H](CC(N)=O)NC(=O)[C@H](CC(=O)O)NC(=O)[C@H](CC(C)C)NC(=O)[C@@H](NC(=O)[C@@H](NC(=O)[C@H](CC(N)=O)NC(=O)[C@H](CCSC)NC(=O)[C@H](CCC(=O)O)NC(=O)[C@H](CC(=O)O)NC(=O)[C@H](CO)NC(=O)[C@H](Cc1ccccc1)NC(=O)[C@H](CO)NC(=O)CNC(=O)[C@H](CC(=O)O)NC(=O)CCNC(=O)[C@@H](N)Cc1c[nH]cn1)[C@@H](C)O)[C@@H](C)CC)C(=O)N[C@@H](CC(N)=O)C(=O)N[C@@H](Cc1c[nH]c2ccccc12)C(=O)N[C@@H](CC(C)C)C(=O)N[C@H](C(=O)N[C@@H](CCC(N)=O)C(=O)N[C@H](C(=O)N[C@@H](CCCCN)C(=O)N[C@H](C(=O)N[C@H](C(=O)N[C@@H](CC(=O)O)C(=O)O)[C@@H](C)O)[C@@H](C)CC)[C@@H](C)O)[C@@H](C)CC [[bAla2]hGLP-2(1-33)] (H-H[βAla]DGSFSDEMNTILDNLAARDFINWLIQTKITD-OH) | 118 | 0 | 
